Where a name gives a salt, the structure may show the parent alone.
For `Cc1nn(-c2cccc(CN)c2)c2c1CCN(c1ccc(-c3ccccc3CN3CC[C@H](O)C3)cc1)C2` (as salt: trifluoroacetic acid salt) [Example 100, 1-[3-Aminomethylphenyl]-3-methyl-6-[(2′-N-((3-(S)-hydroxy)pyrrolidinyl)methyl-[1,1′]-biphen-4-yl)]-1,4,5,6-tetrahydro-7H-pyrazolo-[3,4-c]-pyridin-7-one bis-trifluoroacetic acid salt], which melting point is on record?
The melting point was 79.2 °C.

— patent publication US6413980B1, “Nitrogen containing heterobicycles as factor Xa inhibitors” (Bristol-Myers Squibb Pharma Company, priority 1998, dated 2002)
